The text below walks through data of ChEMBL document CHEMBL1201862, “PubChem BioAssay data set” (2004).

Assay in all cases: DTP human tumour cell line panel, 48 h
Assay [1] has as its system 786-0.
The subject of assay [2] is CAKI-1.
The subject of assay [3] is COLO 205.
Assay [4] concerns IGROV-1.
Assay [5] deals with KM12.
The test system of assay [6] is LOX IMVI.
Assay [7] relates to MCF7.
The subject of assay [8] is MDA-N.
Assay [9] has as its system MOLT-4.
Assay [10] has as its system RPMI-8226.
In assay [11] the test system is SF-268.
Assay [12] has as its system SF-295.
In assay [13] the test system is SF-539.
For assay [14], the system named is SN12C.
For assay [15], the system named is SNB-19.
The test system of assay [16] is SNB-75.
Assay [17] has as its system SW-620.
The subject of assay [18] is UACC-62.
For assay [19], the system named is HOP-92.

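Compound exposure: 48 hours, 5 concentrations, 96-well plates. At the GI50, growth is halved.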 Active and inactive are the calls of the source. Cut-off read from the data, not from the text of the source: active = GI50 up to about 1.1 µM and inactive = higher.

In the case of `Cc1nn(-c2cc(Cl)ccc2[N+](=O)[O-])c(C)c1Cl`, the GI50 is > 100 µM (inactive) in [1]; 83.4 µM (inactive) in assay [2]; > 100 µM (inactive) in [3]; > 100 µM (inactive) in assay [4]; > 100 µM (inactive) in [5]; > 100 µM (inactive) in assay [6]. Besides, the GI50 in assay [7] is > 100 µM (inactive); in [8], > 100 µM (inactive); in [9], 13.6 µM (inactive); in assay [10] it was 87.7 µM (inactive); in assay [11] it was > 100 µM (inactive); in [12] it was > 100 µM (inactive). The GI50 in [13] is > 100 µM (inactive); in assay [14], > 100 µM (inactive); in assay [15], > 100 µM (inactive); in assay [16] it was 86.5 µM (inactive); in [17], > 100 µM (inactive); in assay [18], > 100 µM (inactive).

Consider `Cc1ccc(S(=O)(=O)N/N=C2\CC3C4CCC3C2C4)cc1` (centres undefined), for which the GI50 in assay [1], in assay [2], in assay [3], in [19], in assay [4] and in assay [5] was > 100 µM (inactive) throughout. Also, the GI50 in [6], in [7], in assay [8], in assay [9], in [11] and in assay [12] was > 100 µM (inactive) in each case. In addition, the GI50 in assay [13] was > 100 µM (inactive); in assay [14], > 100 µM (inactive); in assay [15], > 100 µM (inactive); in [16], 0.0859 µM (active); in assay [17] it was > 100 µM (inactive); in assay [18] it was > 100 µM (inactive).

Take `CC1=CN(c2ccccc2)S2=C1c1sc3c(c1N2c1ccc(Br)cc1)CCCC3` (centres undefined): the GI50 in assay [1], in [2], in assay [3], in [19], in [4] and in [5] was > 100 µM (inactive) each time. Besides, the GI50 in assay [6] was 97.1 µM (inactive); in [7], > 100 µM (inactive); in assay [8], > 100 µM (inactive); in assay [9], > 100 µM (inactive); in [10] it was > 100 µM (inactive); in assay [11], > 100 µM (inactive). For the same compound, the GI50 in assay [12], in assay [13], in assay [14], in assay [15], in assay [17] and in [18] was > 100 µM (inactive) throughout.

Regarding `N#CCCSC(=S)C1CCCC1=N` (centres undefined), the GI50 in [1], in assay [2], in [3], in assay [19], in assay [4] and in assay [5] was > 100 µM (inactive) each time. Further, the GI50 in assay [7], in assay [8], in assay [9], in assay [10], in [11] and in assay [12] was > 100 µM (inactive) in each case. For the same compound, the GI50 in [13] was > 100 µM (inactive); in assay [14], > 100 µM (inactive); in assay [15], > 100 µM (inactive); in assay [16], 3.88 µM (inactive); in assay [17], > 100 µM (inactive); in assay [18] it was > 100 µM (inactive).

In the case of `CC(C#N)NCc1ccc(C(C)NC(C)C#N)cc1` (centres undefined), the GI50 in assay [1], in assay [2], in assay [3], in assay [19], in assay [4] and in assay [5] was > 100 µM (inactive) in each case. Also, the GI50 in assay [6], in [7], in assay [8], in assay [9], in [11] and in assay [12] was > 100 µM (inactive) each time. In addition, the GI50 in [13], in assay [14], in [15], in assay [17] and in [18] was > 100 µM (inactive) in each case.

Regarding `O=C(NNC(=S)NC1CCCCC1)C12CC3CC(CC(C3)C1)C2`, the GI50 in [1] is 61.8 µM (inactive); in assay [2], > 100 µM (inactive); in assay [3] it was > 100 µM (inactive); in [4], > 100 µM (inactive); in assay [5] it was > 100 µM (inactive); in assay [6], > 100 µM (inactive). Moreover, the GI50 in assay [7], in assay [8], in assay [9], in assay [10], in [11] and in assay [12] was > 100 µM (inactive) in each case. Also, the GI50 is > 100 µM (inactive) in [13]; > 100 µM (inactive) in [14]; > 100 µM (inactive) in [15]; 52.2 µM (inactive) in assay [16]; > 100 µM (inactive) in [17]; > 100 µM (inactive) in assay [18].

As to `S=C(NN=C1NCCCCN1)Nc1ccccc1`, the GI50 was 39 µM (inactive) in [1]; > 100 µM (inactive) in assay [2]; 6.68 µM (inactive) in assay [3]; 43.4 µM (inactive) in assay [4]; 37.2 µM (inactive) in [5]; 26.6 µM (inactive) in assay [6]. In addition, the GI50 in assay [7] was 31.2 µM (inactive); in assay [8] it was 98.4 µM (inactive); in assay [9], 25.5 µM (inactive); in assay [10], 9.93 µM (inactive); in [11] it was 87.3 µM (inactive); in [12], 31.5 µM (inactive). For the same compound, the GI50 in assay [13] is > 100 µM (inactive); in assay [14] it was > 100 µM (inactive); in [15], > 100 µM (inactive); in [16], 80.9 µM (inactive); in assay [18] it was > 100 µM (inactive).

In the case of `CC[n+]1cnc(N)c2c(-c3ccc(Cl)cc3)cn(-c3ccc(C)cc3)c21`, the GI50 in [1] is 11.4 µM (inactive); in [2] it was 16 µM (inactive); in assay [3] it was 3.78 µM (inactive); in [19] it was 11.2 µM (inactive); in assay [4] it was 13.1 µM (inactive); in [5] it was 15.8 µM (inactive). The GI50 in [6] is 11.4 µM (inactive); in assay [7], 0.971 µM (active); in [8], 12.5 µM (inactive); in [9] it was 4.52 µM (inactive); in assay [11], 13.6 µM (inactive); in [12] it was 12.7 µM (inactive). Moreover, the GI50 was 14.6 µM (inactive) in assay [13]; 12.3 µM (inactive) in [14]; 15.5 µM (inactive) in assay [15]; 3.56 µM (inactive) in assay [16]; 15.3 µM (inactive) in assay [17]; 11.4 µM (inactive) in assay [18].

Regarding `CN(CCCn1ccnc1[N+](=O)[O-])CCCn1ccnc1[N+](=O)[O-]`, the GI50 in assay [1], in assay [2], in [3], in assay [4], in assay [5] and in [6] was > 100 µM (inactive) in each case. Further, the GI50 in assay [7] was > 100 µM (inactive); in assay [8], > 100 µM (inactive); in [9], 0.0861 µM (active); in [10] it was > 100 µM (inactive); in assay [11], > 100 µM (inactive); in assay [12] it was > 100 µM (inactive). In addition, the GI50 in [13], in [14], in assay [16], in assay [17] and in [18] was > 100 µM (inactive) each time.

`OC12C3C4CC5C(C4[C@@H]1Br)C2[C@@](O)(c1c(F)c(F)c(F)c(F)c1F)C53` (some centres undefined): the GI50 was 41.7 µM (inactive) in assay [1]; 21.1 µM (inactive) in assay [2]; 39.4 µM (inactive) in [3]; 24 µM (inactive) in assay [19]; 35.6 µM (inactive) in [4]; 15.7 µM (inactive) in [5]. The GI50 in [6] is 32.1 µM (inactive); in [7], 20.4 µM (inactive); in [8], 34.9 µM (inactive); in assay [9], 26.5 µM (inactive); in [11], 38.7 µM (inactive); in [12] it was 25.9 µM (inactive). Moreover, the GI50 was 56.4 µM (inactive) in [13]; > 100 µM (inactive) in [14]; 37.2 µM (inactive) in assay [15]; 43.3 µM (inactive) in assay [17]; 25.6 µM (inactive) in assay [18].

As for `NCC[Se][Se]CCN`, the GI50 in assay [1] was 14 µM (inactive); in assay [2], 10.7 µM (inactive); in assay [3] it was 4.06 µM (inactive); in [19], 19.3 µM (inactive); in [4], 9.23 µM (inactive); in assay [5], 8.05 µM (inactive). In addition, the GI50 in assay [7] was 8.79 µM (inactive); in [8], 10.9 µM (inactive); in [9], 5.25 µM (inactive); in [10] it was 12.9 µM (inactive); in assay [11], 16 µM (inactive); in assay [12], 3.2 µM (inactive). Further, the GI50 in [13] was 10.6 µM (inactive); in assay [14], 6.76 µM (inactive); in assay [15], 8.47 µM (inactive); in [16], 10.6 µM (inactive); in assay [17], 10.7 µM (inactive); in [18], 17.3 µM (inactive).

By GI50 is commonly meant the concentration at which growth is held to half of that of the control.
